Several values for one entry are separate records, joined by “and”; a condition that tells them apart may be missing. Identical values can stand only once.

One assay addresses T1, ARAF (Homo sapiens, UniProt P10398).
T1 sequence (P10398 1-606): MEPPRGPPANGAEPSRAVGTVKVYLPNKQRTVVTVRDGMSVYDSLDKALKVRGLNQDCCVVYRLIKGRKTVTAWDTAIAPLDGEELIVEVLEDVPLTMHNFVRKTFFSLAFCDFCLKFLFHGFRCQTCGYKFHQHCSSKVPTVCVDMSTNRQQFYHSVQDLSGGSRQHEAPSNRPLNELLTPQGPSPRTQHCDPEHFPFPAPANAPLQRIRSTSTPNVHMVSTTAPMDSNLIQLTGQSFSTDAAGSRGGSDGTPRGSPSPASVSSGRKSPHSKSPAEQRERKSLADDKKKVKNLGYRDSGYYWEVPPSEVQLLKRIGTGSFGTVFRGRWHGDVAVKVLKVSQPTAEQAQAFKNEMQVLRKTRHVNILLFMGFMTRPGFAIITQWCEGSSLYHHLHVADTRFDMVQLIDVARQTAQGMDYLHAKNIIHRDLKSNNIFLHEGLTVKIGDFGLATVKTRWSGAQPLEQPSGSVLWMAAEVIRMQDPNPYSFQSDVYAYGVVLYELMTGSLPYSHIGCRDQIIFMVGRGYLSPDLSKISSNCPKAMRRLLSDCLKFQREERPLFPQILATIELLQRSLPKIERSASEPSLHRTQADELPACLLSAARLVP
The assay can be described thus: biochemical. As to conditions: read-out: % enzyme activity, 1 μM; Run 1, Run 2.

A further assay deals with MAPKAPK3 (Homo sapiens, UniProt Q16644). The assay can be described thus: biochemical. As to conditions: read-out: % enzyme activity, 1 μM; Run 1, Run 2.
The target in the next assay is T2, IKKe/IKBKE (Homo sapiens, UniProt Q14164).
T2 sequence (Q14164 1-716): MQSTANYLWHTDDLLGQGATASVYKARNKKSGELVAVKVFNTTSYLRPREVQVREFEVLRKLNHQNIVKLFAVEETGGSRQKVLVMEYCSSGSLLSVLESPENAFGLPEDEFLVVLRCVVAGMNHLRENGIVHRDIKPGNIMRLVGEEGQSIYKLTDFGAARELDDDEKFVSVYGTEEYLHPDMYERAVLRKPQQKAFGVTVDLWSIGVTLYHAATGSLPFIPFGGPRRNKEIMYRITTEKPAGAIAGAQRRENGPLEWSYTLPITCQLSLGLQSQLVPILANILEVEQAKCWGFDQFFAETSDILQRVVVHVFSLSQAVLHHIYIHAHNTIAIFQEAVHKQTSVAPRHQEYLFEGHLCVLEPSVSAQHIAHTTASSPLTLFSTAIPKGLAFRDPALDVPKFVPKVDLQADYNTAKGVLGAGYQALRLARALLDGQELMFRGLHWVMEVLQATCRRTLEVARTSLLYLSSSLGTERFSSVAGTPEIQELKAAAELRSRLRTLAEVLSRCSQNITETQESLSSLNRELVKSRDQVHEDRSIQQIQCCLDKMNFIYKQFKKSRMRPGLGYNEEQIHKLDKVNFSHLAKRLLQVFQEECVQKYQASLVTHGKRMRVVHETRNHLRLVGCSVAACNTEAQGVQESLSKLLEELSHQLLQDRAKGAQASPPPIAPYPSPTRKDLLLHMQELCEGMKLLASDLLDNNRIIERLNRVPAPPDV
The following applies: 1 μM; Run 1, Run 2.

The target of another assay is T3, EPHB2 (Homo sapiens, UniProt P29323).
T3 sequence (P29323 19-1055): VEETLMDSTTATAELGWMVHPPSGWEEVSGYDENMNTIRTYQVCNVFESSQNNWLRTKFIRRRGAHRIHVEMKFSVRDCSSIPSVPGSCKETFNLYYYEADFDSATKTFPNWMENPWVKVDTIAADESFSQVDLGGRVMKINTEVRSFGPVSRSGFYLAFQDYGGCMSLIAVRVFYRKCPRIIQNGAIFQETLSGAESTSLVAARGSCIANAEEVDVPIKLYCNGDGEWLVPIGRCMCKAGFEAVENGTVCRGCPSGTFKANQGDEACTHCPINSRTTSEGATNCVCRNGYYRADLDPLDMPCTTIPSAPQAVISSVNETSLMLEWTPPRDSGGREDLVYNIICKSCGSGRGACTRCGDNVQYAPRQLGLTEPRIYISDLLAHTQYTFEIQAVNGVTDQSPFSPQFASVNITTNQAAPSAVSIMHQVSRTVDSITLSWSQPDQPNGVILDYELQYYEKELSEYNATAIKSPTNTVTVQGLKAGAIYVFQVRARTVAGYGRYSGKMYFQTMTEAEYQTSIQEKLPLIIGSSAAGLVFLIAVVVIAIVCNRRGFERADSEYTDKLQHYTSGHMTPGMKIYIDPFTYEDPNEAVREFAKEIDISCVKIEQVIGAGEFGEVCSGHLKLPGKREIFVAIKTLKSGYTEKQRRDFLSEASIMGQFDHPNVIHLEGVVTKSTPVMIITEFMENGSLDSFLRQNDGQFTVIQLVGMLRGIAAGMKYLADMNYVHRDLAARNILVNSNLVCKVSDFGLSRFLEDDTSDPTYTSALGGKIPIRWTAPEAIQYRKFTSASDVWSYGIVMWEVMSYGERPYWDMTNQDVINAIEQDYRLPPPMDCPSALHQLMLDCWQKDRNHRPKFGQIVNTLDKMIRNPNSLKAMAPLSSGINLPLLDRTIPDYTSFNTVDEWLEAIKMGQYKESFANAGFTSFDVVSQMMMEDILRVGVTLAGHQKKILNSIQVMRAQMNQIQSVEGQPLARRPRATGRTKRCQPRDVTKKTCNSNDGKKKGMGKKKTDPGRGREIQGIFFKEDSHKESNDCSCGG
The assay can be described thus: biochemical. As to conditions: read-out: % enzyme activity, 1 μM; Run 1, Run 2.

The target of another assay is T4, PBK/TOPK (Homo sapiens, UniProt Q96KB5).
T4 sequence (Q96KB5 1-322): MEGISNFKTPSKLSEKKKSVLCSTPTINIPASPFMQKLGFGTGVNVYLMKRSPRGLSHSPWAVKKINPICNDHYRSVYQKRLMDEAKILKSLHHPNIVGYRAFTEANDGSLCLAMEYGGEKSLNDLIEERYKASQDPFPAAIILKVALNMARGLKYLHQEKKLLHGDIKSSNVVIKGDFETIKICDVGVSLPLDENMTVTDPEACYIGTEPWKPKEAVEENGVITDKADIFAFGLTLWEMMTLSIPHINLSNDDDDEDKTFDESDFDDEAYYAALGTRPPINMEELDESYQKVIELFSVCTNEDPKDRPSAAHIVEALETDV
As to conditions: 1 μM; Run 1, Run 2.

A further assay has as its target CDK2/cyclin E (Homo sapiens, UniProt P24941). The following applies: 1 μM; Run 1, Run 2.
The target in a further assay is CLK1 (Homo sapiens, UniProt P49759). The following applies: 1 μM; Run 1, Run 2.
The next assay concerns the target RSK2 (Homo sapiens, UniProt P51812). The following applies: 1 μM; Run 1, Run 2.

Sequence of MAPKAPK3 (Q16644 whole entry): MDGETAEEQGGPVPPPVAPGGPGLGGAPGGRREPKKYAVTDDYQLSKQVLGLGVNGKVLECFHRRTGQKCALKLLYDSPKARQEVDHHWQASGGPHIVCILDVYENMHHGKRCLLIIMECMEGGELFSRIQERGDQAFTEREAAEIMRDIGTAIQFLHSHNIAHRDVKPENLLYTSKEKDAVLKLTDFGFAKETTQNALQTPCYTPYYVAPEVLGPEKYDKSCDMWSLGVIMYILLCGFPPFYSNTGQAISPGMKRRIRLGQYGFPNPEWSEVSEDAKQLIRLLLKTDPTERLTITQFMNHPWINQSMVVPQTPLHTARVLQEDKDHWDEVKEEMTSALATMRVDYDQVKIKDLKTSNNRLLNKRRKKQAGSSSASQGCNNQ
Sequence of CLK1 (P49759 whole entry): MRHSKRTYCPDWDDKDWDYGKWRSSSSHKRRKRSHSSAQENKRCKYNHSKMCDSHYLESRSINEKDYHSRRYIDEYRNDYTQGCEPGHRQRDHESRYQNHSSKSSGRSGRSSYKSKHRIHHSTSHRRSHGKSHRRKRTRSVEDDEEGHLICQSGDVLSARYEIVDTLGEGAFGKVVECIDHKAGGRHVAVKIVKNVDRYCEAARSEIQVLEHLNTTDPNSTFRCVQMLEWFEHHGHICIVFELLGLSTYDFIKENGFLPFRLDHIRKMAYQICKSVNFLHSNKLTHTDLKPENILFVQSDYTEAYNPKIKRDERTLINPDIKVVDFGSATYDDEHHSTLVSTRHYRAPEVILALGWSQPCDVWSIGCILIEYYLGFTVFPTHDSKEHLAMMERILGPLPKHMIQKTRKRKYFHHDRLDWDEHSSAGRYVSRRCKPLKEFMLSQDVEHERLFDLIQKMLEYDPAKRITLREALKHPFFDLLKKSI
Sequence of RSK2 (P51812 whole entry): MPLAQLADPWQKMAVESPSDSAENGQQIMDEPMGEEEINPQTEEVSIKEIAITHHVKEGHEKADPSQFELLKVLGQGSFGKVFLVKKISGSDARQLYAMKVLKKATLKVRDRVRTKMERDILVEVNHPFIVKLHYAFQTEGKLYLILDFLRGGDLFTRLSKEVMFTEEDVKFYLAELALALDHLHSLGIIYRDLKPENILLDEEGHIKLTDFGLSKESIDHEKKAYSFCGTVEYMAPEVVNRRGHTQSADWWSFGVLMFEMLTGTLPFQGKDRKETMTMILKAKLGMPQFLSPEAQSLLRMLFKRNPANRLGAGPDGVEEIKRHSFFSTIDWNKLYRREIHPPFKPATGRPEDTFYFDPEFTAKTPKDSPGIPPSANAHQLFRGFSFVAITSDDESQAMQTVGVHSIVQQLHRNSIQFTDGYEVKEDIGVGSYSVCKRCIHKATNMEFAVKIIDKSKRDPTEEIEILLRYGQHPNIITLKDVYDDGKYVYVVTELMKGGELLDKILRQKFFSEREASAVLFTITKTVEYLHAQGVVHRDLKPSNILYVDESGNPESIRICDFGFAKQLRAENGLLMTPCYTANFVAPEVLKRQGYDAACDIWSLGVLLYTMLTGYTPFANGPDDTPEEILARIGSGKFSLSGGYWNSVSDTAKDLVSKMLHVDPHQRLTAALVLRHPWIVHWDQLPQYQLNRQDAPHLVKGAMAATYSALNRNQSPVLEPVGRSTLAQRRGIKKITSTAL

Take `COc1cc(-c2cncc(-c3ccc(N4CCN(C)CC4)cc3)c2C)cc(F)c1C(N)=O` [Compound 26a, 2-Fluoro-6-methoxy-4-(4-methyl-5-(4-(4-methylpiperazin-1-yl)phenyl)pyridin-3-yl)benzamide]: the results for the remaining activity at 1 µM on ARAF, on MAPKAPK3 and at EPHB2 were 29.3%, 99.5% and 93.9%, respectively. Also, the “% enzyme activity” value at IKKe/IKBKE is 87.51%; on PBK/TOPK, 89.81%; at CDK2/cyclin E, 104.52%; at CLK1, 94.42%; on RSK2 it was 99.92%. Also, the % enzyme activity at 1 μM in the assay with DYRK1B was 40.6% and 39.8%.

Take `COc1cc(-c2cncc(-c3ccc(N4C[C@@H](C)N(C)[C@@H](C)C4)cc3)c2C)cc(F)c1C(N)=O` [Compound 26c, 2-Fluoro-6-methoxy-4-(4-methyl-5-(4-((3R,5S)-3,4,5-trimethylpiperazin-1-yl)phenyl)pyridin-3-yl)benzamide]: the remaining activity at 1 µM is 48.1% on ARAF, 97.2% on MAPKAPK3 and 98.8% at EPHB2. For the same compound, the “% enzyme activity” value turned out to be 94.75% at IKKe/IKBKE; 102.56% at PBK/TOPK; 102.10% at CDK2/cyclin E; 86.91% on CLK1; 101.06% on RSK2. Also, the % enzyme activity at 1 μM in the assay on DYRK1B is 59.2% and 58.5%.

The values are drawn from article PMC8213057, “Targeting ALK2: An Open Science Approach to Developing Therapeutics for the Treatment of Diffuse Intrinsic Pontine Glioma” (Journal of Medicinal Chemistry, 2020).
